Assay results from patent US20220002279A1, “NOVEL IMIDAZOLE DERIVATIVE” (priority 2018, published 2022).
Converted amounts (≈) assume the structure as drawn. Like-named read-outs stand apart in the source and are kept apart here.

Assays:
[1] = target: T1, Escherichia coli LpxC enzyme (Escherichia coli, UniProt P0A725); test: Inhibitory activity on Escherichia coli LpxC enzyme (LCMS method); assay type: biochemical
T1 construct: made in house; host or cells: Escherichia coli
T1 sequence (P0A725 1-305): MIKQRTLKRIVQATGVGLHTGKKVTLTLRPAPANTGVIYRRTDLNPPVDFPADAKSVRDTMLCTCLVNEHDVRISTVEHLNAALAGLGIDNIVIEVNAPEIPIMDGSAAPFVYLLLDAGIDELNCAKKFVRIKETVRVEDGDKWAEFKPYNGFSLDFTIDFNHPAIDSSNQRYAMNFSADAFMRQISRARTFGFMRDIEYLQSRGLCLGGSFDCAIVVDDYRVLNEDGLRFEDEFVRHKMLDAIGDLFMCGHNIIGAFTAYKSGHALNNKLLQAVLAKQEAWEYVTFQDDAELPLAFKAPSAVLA
From the text: Test Example 3 Evaluation of the Inhibitory Activity on Escherichia coli LpxC Enzyme (LCMS Method)
To assay the activity of Escherichia coli LpxC enzyme, LpxC was reacted with its substrate, UDP-3-O-(R-3-hydroxymyristoyl)-N-acetylglucosamine, and the amount of the reaction product was quantified by liquid chromatography tandem mass spectrometry.
Specifically, to 3.1 nmol/L Escherichia coli LpxC enzyme (as acquired by preparing chromosomal DNA from Escherichia coli, obtaining the Escherichia coli LpxC genes by PCR (polymerase chain reaction) using LpxC specific primer, and incorporating the genes into a vector, followed by expression using Escherichia coli), 20 μmol/L UDP-3-O-(R-3-hydroxymyristoyl)-N-acetylglucosamine (Alberta) was added, and the mixture was incubated at room temperature for 120 minutes. This reaction was performed in a 40 mmol/L-2-morpholinoethanesulfonic acid buffer solution (pH 6.5) containing 0.02% Brij 35, 25 nmol/L-zinc chloride, and 80 μmol/L-dithiothreitol. The reaction was terminated by the addition of acetonitrile containing 25 μmol/L-UDP-N-acetylglucosamine as an internal standard to the reaction mixture. Centrifugation was performed and the amount of the substrate and the reaction product in the supernatant was detected by liquid chromatography tandem mass spectrometry. An inhibition curve was obtained by performing the aforementioned reaction in the presence of various concentrations of test compounds. From this inhibition curve, the concentration of test compound at which the amount of the reaction product was suppressed by 50% (IC50 value) was determined, which was used as an index for the inhibitory activity on Escherichia coli LpxC enzyme.

[2] = tested on: Klebsiella pneumoniae strain ATCC13883; test: Antimicrobial activity, MIC by broth microdilution; assay type: cell-based; settings: ATCC13883, cation-adjusted Mueller-Hinton broth, about 5×10^5 CFU/mL, 35° C., about 18 hours, read-out: MIC Klebsiella pneumoniae ATCC13883
Procedure, shortened: (§1)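 MIC read by eye as the lowest drug level lacking visible growth after roughly 18 h at 35° C. Cells from heart infusion agar, set to McFarland 0.5 and diluted, were inoculated at about 5×10^5 CFU/mL into cation-adjusted Mueller-Hinton broth with compound, per adapted CLSI microdilution.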

[3] = tested on: Escherichia coli strain ATCC25922; test: Antimicrobial activity, MIC by broth microdilution; assay type: cell-based; settings: ATCC25922, 18 h, cation-adjusted Mueller-Hinton broth, about 5×10^5 CFU/mL, 35° C., about 18 hours, read-out: MIC Escherichia coli ATCC25922
Procedure, shortened: as §1

[4] = tested on: Pseudomonas aeruginosa strain ATCC27853; test: Antimicrobial activity, MIC by broth microdilution; assay type: cell-based; settings: ATCC27853, 18 h, cation-adjusted Mueller-Hinton broth, about 5×10^5 CFU/mL, 35° C., about 18 hours, read-out: MIC Pseudomonas aeruginosa ATCC27853
Procedure, shortened: as §1

[5] = LC-MS/MS detection, 3.1 nmol/L enzyme, 20 μmol/L substrate, pH 6.5, 120 min, read-out: IC50 (inhibitory activity on Escherichia coli LpxC enzyme, LCMS method)

C[C@H](O)c1nccn1Cc1cc(-c2ccc(C#C[C@@H]3[C@H]4CN(C(=O)CCN)C[C@@H]34)cc2)on1 [Compound 61, 3-Amino-1-[(1R,5S,6s)-6-({4-[3-({2-[(1S)-1-hydroxyethyl]-1H-imidazol-1-yl}methyl)-1,2-oxazol-5-yl]phenyl}ethynyl)-3-azabicyclo[3.1.0]hexan-3-yl]propan-1-one] was tested, and the IC50 [1, 5] was under 37 nM, the MIC [2] was 16 µg/mL (≈ 35.9 µM) and the MIC [3] was 8 µg/mL (≈ 18 µM). The MIC [4] was 4 µg/mL (≈ 8.98 µM).
C[C@H](O)c1nccn1[C@H](CN)c1cc(-c2ccc(C#CC34CC(N)(C3)C4)cc2)on1 [Compound 20, (1S)-1-{1-[(1R)-2-amino-1-(5-{4-[(3-aminobicyclo[1.1.1]pentan-1-yl)ethynyl]phenyl}-1,2-oxazol-3-yl)ethyl]-1H-imidazol-2-yl}ethan-1-ol] was tested, and the IC50 [1, 5] was 279 nM, the MIC [2] was 2 µg/mL (≈ 4.96 µM) and the MIC [3] was 0.5 µg/mL (≈ 1.24 µM). It also gave an MIC [4] of 4 µg/mL (≈ 9.91 µM).
In the case of C[C@H](O)c1nccn1Cc1cc(-c2ccc(C#CC3(N)CC3)cc2)no1 [Compound 27, (1S)-1-{1-[(3-(4-[(1-aminocyclopropyl)ethynyl]phenyl}-1,2-oxazol-5-yl)methyl]-1H-imidazol-2-yl}ethan-1-ol], the IC50 [1, 5] is reported as 193 nM, the MIC [2] is reported as 4 µg/mL (≈ 11.5 µM) and the MIC [3] is reported as 1 µg/mL (≈ 2.87 µM). The MIC [4] was over 128 µg/mL.
C[C@H](O)c1nccn1Cc1cc(-c2ccc(C#CC3CC(N)(C#N)C3)cc2)on1 (stereo partly drawn) [Compound 24, 1-Amino-3-({4-[3-({2-[(1S)-1-hydroxyethyl]-1H-imidazol-1-yl}methyl)-1,2-oxazol-5-yl]phenyl}ethynyl)cyclobutane-1-carbonitrile] was tested, and the IC50 [1, 5] was under 37 nM, the MIC [2] was 4 µg/mL (≈ 10.3 µM) and the MIC [3] was 2 µg/mL (≈ 5.16 µM). The MIC [4] was 128 µg/mL (≈ 330 µM).
Compound C[C@H](O)c1nccn1Cc1cc(-c2ccc(C#CC(C)(C)N)cc2)on1 [Compound 33] has an IC50 [1, 5] of over 3000 nM, an MIC [2] of 64 µg/mL (≈ 183 µM) and an MIC [3] of 32 µg/mL (≈ 91.3 µM). For the same compound, the MIC [4] was over 128 µg/mL.
Compound C[C@H](O)c1nccn1Cc1cc(-c2ccc(C#CC3(N)COC3)cc2)on1 [Compound 40, (1S)-1-{1-[(5-(4-[(3-aminooxetan-3-yl)ethynyl]phenyl}-1,2-oxazol-3-yl)methyl]-1H-imidazol-2-yl}ethan-1-ol] has an IC50 [1, 5] of 140 nM, an MIC [2] of 32 µg/mL (≈ 87.8 µM) and an MIC [3] of 16 µg/mL (≈ 43.9 µM). The MIC [4] was over 128 µg/mL.
For C[C@H](O)c1nccn1[C@H](CN)c1cc(-c2ccc(C#C[C@H]3C[C@H](O)C3)cc2)on1 [Compound 70, trans-3-[(4-{3-[(1R)-2-Amino-1-{2-[(1S)-1-hydroxyethyl]-1H-imidazol-1-yl}ethyl]-1,2-oxazol-5-yl}phenyl)ethynyl]cyclobutan-1-ol], the IC50 [1, 5] was under 37 nM, the MIC [2] was 1 µg/mL (≈ 2.55 µM) and the MIC [3] was 0.25 µg/mL (≈ 0.637 µM). For the same compound, the MIC [4] was 4 µg/mL (≈ 10.2 µM).
In the case of C[C@H](O)c1nccn1Cc1cc(-c2ccc(C#CC3(N)CCOCC3)cc2)on1 [Compound 29, (1S)-1-{1-[(5-{4-[(4-aminooxan-4-yl)ethynyl]phenyl}-1,2-oxazol-3-yl)methyl]-1H-imidazol-2-yl}ethan-1-ol], the IC50 [1, 5] is reported as over 3000 nM, the MIC [2] is reported as 128 µg/mL (≈ 326 µM) and the MIC [3] is reported as 64 µg/mL (≈ 163 µM). It also gave an MIC [4] of over 128 µg/mL.
For Cc1cnc([C@H](C)O)n1Cc1cc(-c2ccc(C#CC3(N)CC3)cc2)on1 [Compound 64, (1S)-1-{1-[(5-{4-[(1-Aminocyclopropyl)ethynyl]phenyl}-1,2-oxazol-3-yl)methyl]-5-methyl-1H-imidazol-2-yl}ethan-1-ol], the IC50 [1] was 176 nM, the MIC [2] was 4 µg/mL (≈ 11 µM) and the MIC [3] was 2 µg/mL (≈ 5.52 µM). It also gave an MIC [4] of over 128 µg/mL.
Work on C[C@H](O)c1nccn1Cc1cc(-c2ccc(C#C[C@@H]3[C@H]4CN(C(=O)CC(C)(C)N)C[C@@H]34)cc2)on1 [Compound 62, 3-amino-1-[(1R,5S,6s)-6-((4-[3-((2-[(1S)-1-hydroxyethyl]-1H-imidazol-1-yl}methyl)-1,2-oxazol-5-yl]phenyl)ethynyl)-3-azabicyclo[3.1.0]hexan-3-yl]-3-methylbutan-1-one] yielded an IC50 [1, 5] of under 37 nM, an MIC [2] of 32 µg/mL (≈ 67.6 µM) and an MIC [3] of 8 µg/mL (≈ 16.9 µM). The MIC [4] was 8 µg/mL (≈ 16.9 µM).
